Test systems include HCT-116 colon; HOP-62 NSCLC; KM12 colon; NCI-H226 lung; OVCAR-4 ovarian; RXF 393 renal; SF-539 CNS; SN12C renal; UACC-62 melanoma; HOP-92 NSCLC.
Common to all, as to assay: NCI anticancer screen, dose series, 48 h

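All cell lines were grown in 96-well plates and treated with compound for 48 hours. GI50: concentration for 50% inhibition of growth. TGI is the concentration that stops growth completely.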 Bounds are passed on as bounds.

For 13 compounds, GI50 and TGI results are on record in PubChem BioAssay (NCI).

In the case of `COc1c(OC2OC(C)C(O)C(O)C2O)c(OC)c2oc(-c3ccc(O)cc3)cc(=O)c2c1O` (configuration not stated), the GI50 was 32.4 µM in the experiment on HCT-116 colon; 35.1 µM with HOP-62 NSCLC; 39.7 µM in the experiment with KM12 colon; 30.6 µM with NCI-H226 lung; 29.7 µM with OVCAR-4 ovarian; 23.8 µM in the experiment on RXF 393 renal. For the same compound, the GI50 is 34.3 µM in the experiment on SF-539 CNS, 27.8 µM in the experiment on SN12C renal and 16.6 µM in the experiment with UACC-62 melanoma. Besides, the TGI in the experiment with HCT-116 colon is over 100 µM; in the experiment on HOP-62 NSCLC, over 100 µM; in the experiment on KM12 colon, over 100 µM; in the experiment on NCI-H226 lung, over 100 µM; in the experiment on OVCAR-4 ovarian, over 100 µM; in the experiment with RXF 393 renal it was 66.5 µM. The results for the TGI in the experiment with SF-539 CNS, in the experiment on SN12C renal and with UACC-62 melanoma were 90.5 µM, over 100 µM and 38.4 µM, respectively.
With `C/C(=N/NC(N)=S)C(CN1CCOCC1)C(C1=C(O)c2ccccc2OC1)c1ccccc1` (configuration not stated), the TGI in the experiment with HCT-116 colon, in the experiment with HOP-92 NSCLC, in the experiment on KM12 colon, with NCI-H226 lung, in the experiment on OVCAR-4 ovarian and in the experiment on RXF 393 renal was over 100 µM throughout. For the same compound, the TGI in the experiment on SF-539 CNS, with SN12C renal and in the experiment on UACC-62 melanoma was over 100 µM throughout.
`NCCOCCOCC(=O)O`: the TGI with HCT-116 colon, in the experiment on HOP-92 NSCLC, with KM12 colon, in the experiment on NCI-H226 lung, in the experiment on OVCAR-4 ovarian and with RXF 393 renal was over 100 µM in each case. The TGI with SF-539 CNS, with SN12C renal and in the experiment with UACC-62 melanoma was over 100 µM each time.
As for `COc1cc(C2CC(c3ccc(Cl)cc3)=NN2C(C)=O)ccc1Oc1ccnc2cc(Cl)ccc12` (configuration not stated), the GI50 was 2.32 µM with HOP-92 NSCLC; over 100 µM in the experiment on KM12 colon; 3.32 µM in the experiment on RXF 393 renal; over 100 µM in the experiment with SN12C renal; over 100 µM with UACC-62 melanoma. Moreover, the TGI was 62.6 µM with HOP-92 NSCLC; over 100 µM in the experiment with KM12 colon; 20.1 µM with RXF 393 renal; over 100 µM with SN12C renal; over 100 µM in the experiment on UACC-62 melanoma.
Turning to `COC(OC)c1cccnc1C`, the TGI with HCT-116 colon, in the experiment on HOP-62 NSCLC, in the experiment on HOP-92 NSCLC, with KM12 colon, in the experiment with OVCAR-4 ovarian and in the experiment with RXF 393 renal was over 100 µM in each case. Also, the TGI in the experiment with SF-539 CNS, in the experiment on SN12C renal and with UACC-62 melanoma was over 100 µM each time.
For `COc1c2c(c(O)c3c4c(c(C)cc13)C1OC3(C(OC)OC5CC(C)(O)C(OC6CC(C)(O)C(O)C(C)O6)C(C)O5)OC1C(OC)(O4)C31CO1)C(=O)C(O)CC2OC1CC(C)(O)C(OC(C)=O)C(C)O1` (configuration not stated), the TGI with HCT-116 colon was 5.74 µM; in the experiment on HOP-92 NSCLC, under 0.01 µM; with KM12 colon it was under 0.01 µM; with NCI-H226 lung, under 0.01 µM; in the experiment with OVCAR-4 ovarian, under 0.01 µM; with RXF 393 renal, under 0.01 µM. For the same compound, the TGI with SF-539 CNS was under 0.01 µM; in the experiment with SN12C renal it was 0.113 µM; in the experiment on UACC-62 melanoma, under 0.01 µM.
For `C[C@]12CC[C@H](OC(=O)Nc3ccccc3)CC1=CC[C@@H]1C2CC[C@]2(C)/C(=N/OC(=O)Nc3ccccc3)CCC12` (some centres not stated), the TGI with HCT-116 colon is over 100 µM; in the experiment on HOP-92 NSCLC it was 72.1 µM; in the experiment with KM12 colon, over 100 µM; with OVCAR-4 ovarian it was over 100 µM; with SF-539 CNS it was over 100 µM; in the experiment with SN12C renal, 3.32 µM. For the same compound, in the experiment on UACC-62 melanoma, the TGI was over 100 µM.
Turning to `C=C(c1ccccc1)c1cc2c(=O)[nH]ccc2n1C`, the TGI was over 100 µM in the experiment with HOP-62 NSCLC; 61.3 µM in the experiment with HOP-92 NSCLC; over 100 µM in the experiment on KM12 colon; over 100 µM in the experiment with OVCAR-4 ovarian; 86.1 µM with RXF 393 renal; over 100 µM in the experiment with SN12C renal. For the same compound, in the experiment on UACC-62 melanoma, the TGI was over 100 µM.
For `C[C@@H]1CC2(C[C@@H](C)C3[C@@H](CC4(C)CCCC5C6=CC(O)(CC[C@]34C)OC6=CC(=O)OC5(C)C)O2)OC1=O` (some centres not stated), the TGI with HCT-116 colon, in the experiment on HOP-92 NSCLC, in the experiment on KM12 colon, in the experiment with NCI-H226 lung, with OVCAR-4 ovarian and in the experiment with RXF 393 renal was over 100 µM throughout. The TGI in the experiment on SF-539 CNS, in the experiment on SN12C renal and in the experiment on UACC-62 melanoma was over 100 µM in each case.
For the compound `CCOC(=O)/C=C/c1ccc([N+](=O)[O-])o1`, the GI50 in the experiment on HCT-116 colon is 1.62 µM; with HOP-92 NSCLC it was 2.66 µM; in the experiment with KM12 colon it was 12.6 µM; with NCI-H226 lung, 2.02 µM; with OVCAR-4 ovarian it was 4.93 µM; in the experiment on RXF 393 renal, 1.82 µM. The GI50 is 2.7 µM in the experiment with SF-539 CNS, 3.03 µM with SN12C renal and 1.71 µM with UACC-62 melanoma. In addition, the TGI in the experiment with HCT-116 colon came to 5.62 µM; in the experiment with HOP-92 NSCLC, 6.36 µM; with KM12 colon it was 27.6 µM; with NCI-H226 lung, 4.25 µM; in the experiment with OVCAR-4 ovarian, 20.4 µM; in the experiment on RXF 393 renal, 3.86 µM. In addition, the TGI in the experiment with SF-539 CNS stood at 7.4 µM; in the experiment on SN12C renal, 10.8 µM; with UACC-62 melanoma, 4.36 µM.
In the case of `c1ccc(N2CCN(CCN3CCc4c([nH]c5ccccc45)C3c3cccnc3)CC2)cc1` (configuration not stated), the TGI in the experiment with HCT-116 colon is over 100 µM; in the experiment on HOP-62 NSCLC, over 100 µM; in the experiment with HOP-92 NSCLC, 92.5 µM; with KM12 colon it was over 100 µM; with OVCAR-4 ovarian, over 100 µM; in the experiment with SF-539 CNS it was over 100 µM. In addition, the TGI in the experiment with SN12C renal and in the experiment with UACC-62 melanoma was over 100 µM throughout.
For the compound `Nc1ccc(C(=O)N/C(=C\c2ccc3c(c2)OCO3)c2nc3ccccc3s2)cc1`, the TGI with HOP-92 NSCLC turned out to be 24.7 µM; in the experiment with KM12 colon it was 28 µM; with OVCAR-4 ovarian it was 25.1 µM; with RXF 393 renal, 27.9 µM; in the experiment with SF-539 CNS, 31.4 µM; in the experiment on SN12C renal, 25.6 µM. Also, in the experiment on UACC-62 melanoma, the TGI was determined as 33.2 µM.
As for `COc1ccc(OCC(=O)O)c2c1CCC(C)C2=O` (configuration not stated), the TGI in the experiment on HCT-116 colon, with HOP-62 NSCLC, in the experiment on KM12 colon, in the experiment on OVCAR-4 ovarian, with SF-539 CNS and in the experiment on SN12C renal was over 100 µM in each case. The TGI in the experiment with UACC-62 melanoma was over 100 µM.
